The text below walks through data of patent US8252909B2, “Synthetic C-glycolipid and its use for treating cancer, infectious diseases, and autoimmune diseases” (New York University, priority 2002, dated 2012).

Several values for one entry are separate records, joined by “and”; a condition that tells them apart may be missing. Equal entries are not always repeated.

One data set has as its system IL-12p70. Description: serum IL-12 after treatment, sandwich ELISA. Type of data set: in vivo. Conditions: wild type BALB/c mice, 1 μg intravenously. The method, then: (§1) The serum concentrations of IFN-γ and IL-4 were measured 2, 6, 12, 24, 48, and 72 hours after treatment with α-GalCer, α-C-GalCer, or nothing by way of a sandwich ELISA (e-bioscience, San Diego). The serum concentrations of IL-12p70 were also measured at 2, 6, 12, 24, 48 and 72 hours after treatment by way of a sandwich ELISA (Pharmingen, San Diego).
On the technique in general: In an ELISA, binding on a coated surface is turned into a signal by an enzyme label.

A further data set relates to IL-4. Description: serum IL-4 after treatment, sandwich ELISA. Conditions: wild type BALB/c mice, 1 μg intravenously. Type of data set: in vivo. The method, then: as §1
Data set [1] relates to P. yoelii sporozoites. Description: sporozoite-induced blood stage malaria infection, daily blood smears. It counts as in vivo. Conditions: wild type BALB/c mice, 100 ng intraperitoneally three days before challenge. The method, then: (§2) P. yoelii (17NXL strain) was maintained by alternate cyclic passages in Anopheles stephensi mosquitoes and Swiss Webster mice. Sporozoites obtained from dissected salivary glands of infected mosquitoes 2 weeks after their infective blood were used for challenge of the mice. Challenge of mice to determine the development of liver-stage malaria infection was performed by an intravenous injection of 10,000 viable sporozoites into the tail vein. The outcome of the challenge was determined 40-42 hours later by measuring the parasite burden in the livers of the mice using a quantitative real-time RT-PCR method, as taught in Bruna-Romero et al., Int. J. Parasitol. 31, 1449-1502, 2001. Challenge of mice toe determine the development of blood stage malaria infection was performed by an intravenous injection of 75 viable sporozoites into the tail vein. Starting four days after challenge, daily peripheral blood smears were obtained from each mouse and examined microscopically for the presence of blood stage parasites until day 17 post-challenge. Mice were considered positive for parasitemia if at least one blood stage parasite was observed during the time of examination.

Another data set deals with IFN-γ. As to the kind of experiment: serum IFN-γ after treatment, sandwich ELISA. Conditions: wild type BALB/c mice, 1 μg intravenously. It counts as in vivo. The protocol:
as §1

For data set [2], the system named is P. yoelii sporozoites. Description: malaria liver stage development in mice challenged with P. yoelii sporozoites, real-time RT-PCR of 18S rRNA in liver. Conditions: for suppression of P. yoelii liver stages in deficient mice: mice deficient in CD1d, Jα18, IFN-γ or IFN-γ receptor; for suppression of P. yoelii liver stages in deficient mice / malaria liver stage development: 2 μg intraperitoneally two days before challenge; for malaria liver stage development: compared to untreated control; for dose of equal anti-malaria activity (dose response): intraperitoneally three days before challenge. It counts as in vivo. The method, then:
as §2
The degree of liver stage development in challenged mice was determined by quantifying the amount of P. yoelii-specific 18S rRNA molecules in the livers of the mice by way of the real-time RT-PCR technique of Bruna-Romero et al. A 2 μg sample of total RNA prepared from the livers of challenged mice was reverse-transcribed, and an aliquot of the resulting cDNA (133 ng) was used for real-time PCR amplification of P. yoelii 18S rRNA sequences. This amplification was performed in a GeneAmp® 5700 Sequence Detection System (PE Applied Biosystems, Foster City, Calif.). For this purpose, primers 5′-[…]-3′ (SEQ. ID NO: 1) (54 nM) and 5′-[…]-3′ (SEQ. ID NO: 2) (60 nm) were used, together with the dsDNA-specific dye SYBR Green I incorporated into the PCR reaction buffer (PE Biosystems, Foster City, Calif.) in order to detect the PCR product generated. The temperature profile of the reaction was 95° C. for 10 minutes followed by 35 cycles of denaturation of 95° C. for 15 seconds and annealing/extension at 60° C. for 1 minute.
In general terms: Quantitative PCR measures a nucleic acid by following its amplification.

The next data set concerns B16 melanoma cells. Description: melanoma lung metastases, count of metastatic nodules. Type of data set: in vivo, C57/BL6 mice. Conditions: for dose of equal anti-cancer response (lung metastatic nodules): C57BL/6 mice, intravenously two days before challenge with 5×10^4 B16 cells, lungs checked two weeks later. The protocol:
The development of melanoma lung metastases in C57/BL6 mice was determined by first challenging mice intravenously with 5×10^4 syngeneic B16 melanoma cells suspended in DMEM supplemented with 10% FCS. Two weeks after challenge the mice were sacrificed, the lungs removed, and the number of metastatic nodules counted, as described in Fujii et al., Natl. Immunol. 3, 867-874 (2002).

A further data set has as its system liver enzyme activities. Particulars: mice, immediately after treatment (Osman et al., 2000); cited from earlier work.
Data set [3] has as its system P. yoelii sporozoites. Conditions: mice, administered two days before challenge with Plasmodium sporozoites (Gonzalez-Aseguinolaza 2000); cited from earlier work.
For data set [4] the following is noted: independently of dosage (Nakagawa et al., 1998); cited from earlier work.
For data set [5] the following is noted: recent human trials (Shimosaka et al.); cited from earlier work.
[6] abbreviates: 100 ng intraperitoneally four days before challenge.

As for `CCCCCCCCCCCCCCCCCCCCCCCCCC(=O)N[C@@H](CC[C@H]1O[C@H](CO)[C@H](O)[C@H](O)[C@H]1O)[C@H](O)[C@H](O)CCCCCCCCCCCCCC` [α-C-GalCer, 3′S,4′S,5′R-3′-N-hexacosanoyl-4′,5′-dihydroxynonadecyl-α-C-D-galactopyranoside], in the data set with IL-12p70, the “time of peak serum IL-12 concentration after treatment” value came out at 6 h and the “serum IL-12 levels 12 hours after treatment” value was “detectable”. Besides, the “peak serum IL-12 concentration relative to α-GalCer” value with IL-12p70 (6 hours) was found to be 2 times. Also, in the data set with IL-4, the “time of peak serum IL-4 concentration after treatment” value was determined as 2 h. Moreover, the “mice completely protected from blood stage malaria” value in the data set with P. yoelii sporozoites [1] is on record as 9 of 10. Further, the “time at which detectable serum IFN-γ levels start” value in the data set with IFN-γ came out at 6 h. For the same molecule, the “anti-malaria activity in IL-12 deficient mice” value in the data set on P. yoelii sporozoites [2] (setting [6]) was “no difference in anti-malaria activity”. In addition, the “potency against malaria relative to α-GalCer” value with P. yoelii sporozoites [2] (malaria disease model, mice) was found to be 1000 fold. In addition, the “suppression of P. yoelii liver stages in deficient mice” value in the data set with P. yoelii sporozoites [2] was “unable to suppress”. Moreover, the “extension of anti-malaria effect (kinetic effect)” value in the data set with P. yoelii sporozoites [2] (wild type BALB/c mice, 100 ng intraperitoneally at various times before challenge) was “up to three days longer than α-GalCer”. Also, in the data set on P. yoelii sporozoites [2] (wild type BALB/c mice), the “malaria liver stage development” value is on record as “virtually no liver stage development” and the “dose of equal anti-malaria activity (dose response)” value worked out at 1 ng. Also, the “suppression of liver stage development, wild type mice” value in the data set with P. yoelii sporozoites [2] (wild type mice, 100 ng intraperitoneally four days before challenge) was “suppressed liver stage development to a much greater degree than α-GalCer”. Also, the “dose of equal anti-cancer response (lung metastatic nodules)” value in the data set with B16 melanoma cells is listed as 1 ng. The “potency against melanoma metastases relative to α-GalCer” value with B16 melanoma cells (melanoma metastases model, mice) is 100 fold.

Turning to `CCCCCCCCCCCCCCCCCCCCCCCCCC(=O)N[C@@H](CO[C@H]1O[C@H](CO)[C@H](O)[C@H](O)[C@H]1O)[C@H](O)[C@H](O)CCCCCCCCCCCCCC` [α-GalCer, (2S,3S,4R)-1-O-(α-D-galactopyranosyl)-2-(N-hexacosanoylamino)-1,3,4-octadecanetriol], in the data set on liver enzyme activities, the “liver enzyme activities after treatment” value was “transient elevation of liver enzyme activities”. Moreover, in the data set on IL-12p70, the “time of peak serum IL-12 concentration after treatment” value is 6 h and the “serum IL-12 levels 12 hours after treatment” value was “undetectable”. The “time of peak serum IL-4 concentration after treatment” value in the data set with IL-4 came out at 2 h. The “peak serum IL-4 concentration relative to α-C-GalCer” value in the data set with IL-4 (2 hours) is reported as “roughly 3 times”. Further, the “development of malaria liver stages” value with P. yoelii sporozoites [3] is “suppressed development of malaria liver stages”. For the same molecule, the “toxicity in rodents and monkeys” value in data set [4] is “does not induce toxicity”. In addition, the “mice completely protected from blood stage malaria” value in the data set on P. yoelii sporozoites [1] was 0 of 10. For the same molecule, in the data set with IFN-γ, the “time at which detectable serum IFN-γ levels start” value came out at 6 h; the “time of peak serum IFN-γ post-treatment” value is 12 h and 24 h. In addition, in data set [5], the cytotoxicity in humans result was “not cytotoxic”. Further, the “anti-malaria activity in IL-12 deficient mice” value in the data set with P. yoelii sporozoites [2] (setting [6]) is on record as “no difference in anti-malaria activity”. In addition, the “suppression of P. yoelii liver stages in deficient mice” value with P. yoelii sporozoites [2] is given as “unable to suppress”. In the data set with P. yoelii sporozoites [2] (wild type BALB/c mice), the “malaria liver stage development” value is given as “virtually no liver stage development” and the “dose of equal anti-malaria activity (dose response)” value turned out to be 1000 ng. Besides, the “dose of equal anti-cancer response (lung metastatic nodules)” value in the data set with B16 melanoma cells is recorded as 100 ng.
